From the supplement of paper PMC6965134

Test: TIMS collisional cross section (CCS, N2) of the lipid ion; higher = larger ion cross section
Settings: ionization mode: positive, one isomer drawn

| Structure (SMILES) | TIMS collisional cross section (sample type: Liver) [Å²] | TIMS collisional cross section (sample type: plasma) [Å²] | TIMS collisional cross section (sample type: HeLa) [Å²] |
| --- | --- | --- | --- |
| CCCCCCCC/C=C\CCCCCCCC(=O)O[C@H](COC(=O)CCCCCCCCCCCCCCC)COC(=O)CCCCCCCCCCCCCCCCCCCC [TG 16:0_18:1_21:0] (ion (formula + adduct): [C58H110O6+NH4] 1+) | 333 | 333.1 |  |
| CCCCCCCC/C=C\CCCCCCCC(=O)O[C@H](COC(=O)CCCCCCCCCCCCCCC)COC(=O)CCCCCCCCCCCCCCCCCCCCC [TG 16:0_18:1_22:0] (ion (formula + adduct): [C59H112O6+NH4] 1+) | 336.3 |  | 335.9 |
| CCCCCCCC/C=C\CCCCCCCCCCCC(=O)OC[C@@H](COC(=O)CCCCCCCCCCCCCCC)OC(=O)CCCCCCC/C=C\CCCCCCCC [TG 16:0_18:1_22:1] (ion (formula + adduct): [C59H110O6+NH4] 1+) | 334.2 |  |  |
| CCCCC/C=C\C/C=C\C/C=C\C/C=C\CCCCCC(=O)OC[C@@H](COC(=O)CCCCCCCCCCCCCCC)OC(=O)CCCCCCC/C=C\CCCCCCCC [TG 16:0_18:1_22:4] (ion (formula + adduct): [C59H104O6+NH4] 1+) |  | 329.9 |  |
| CC/C=C\C/C=C\C/C=C\C/C=C\C/C=C\CCCCCC(=O)OC[C@@H](COC(=O)CCCCCCCCCCCCCCC)OC(=O)CCCCCCC/C=C\CCCCCCCC [TG 16:0_18:1_22:5] (ion (formula + adduct): [C59H102O6+NH4] 1+) |  |  | 328.5 |
| CC/C=C\C/C=C\C/C=C\CCCCCCCC(=O)OC[C@@H](COC(=O)CCCCCCCCCCCCCCC)OC(=O)CCCCCCC/C=C\C/C=C\CCCCC [TG 16:0_18:2_18:3] (ion (formula + adduct): [C55H96O6+NH4] 1+) |  | 315.8 |  |
| CCCCC/C=C\C/C=C\C/C=C\CCCCCCC(=O)OC[C@@H](COC(=O)CCCCCCCCCCCCCCC)OC(=O)CCCCCCC/C=C\C/C=C\CCCCC [TG 16:0_18:2_20:3] (ion (formula + adduct): [C57H100O6+NH4] 1+) | 322.3 |  |  |
| CCCCC/C=C\C/C=C\C/C=C\C/C=C\CCCC(=O)OC[C@@H](COC(=O)CCCCCCCCCCCCCCC)OC(=O)CCCCCCC/C=C\C/C=C\CCCCC [TG 16:0_18:2_20:4] (ion (formula + adduct): [C57H98O6+NH4] 1+) |  | 321.2 |  |
| CC/C=C\C/C=C\C/C=C\C/C=C\C/C=C\CCCC(=O)OC[C@@H](COC(=O)CCCCCCCCCCCCCCC)OC(=O)CCCCCCC/C=C\C/C=C\CCCCC [TG 16:0_18:2_20:5] (ion (formula + adduct): [C57H96O6+NH4] 1+) | 318.1 | 319.9 |  |
| CCCCC/C=C\C/C=C\C/C=C\C/C=C\CCCCCC(=O)OC[C@@H](COC(=O)CCCCCCCCCCCCCCC)OC(=O)CCCCCCC/C=C\C/C=C\CCCCC [TG 16:0_18:2_22:4] (ion (formula + adduct): [C59H102O6+NH4] 1+) | 328 | 327.9 |  |
| CC/C=C\C/C=C\C/C=C\C/C=C\C/C=C\C/C=C\CCC(=O)OC[C@@H](COC(=O)CCCCCCCCCCCCCCC)OC(=O)CCCCCCC/C=C\C/C=C\CCCCC [TG 16:0_18:2_22:6] (ion (formula + adduct): [C59H98O6+NH4] 1+) | 325.3 |  |  |
| CC/C=C\C/C=C\C/C=C\C/C=C\C/C=C\C/C=C\CCC(=O)OC[C@@H](COC(=O)CCCCCCCCCCCCCCC)OC(=O)CCCC/C=C\C/C=C\C/C=C\C/C=C\CC [TG 16:0_18:4_22:6] (ion (formula + adduct): [C59H94O6+NH4] 1+) | 322.1 |  |  |
| CCCCCCCCCCCCCCCCCCCCCC(=O)OC[C@@H](COC(=O)CCCCCCCCCCCCCCC)OC(=O)CCCCCCCCCCCCCCCCCC [TG 16:0_19:0_22:0] (ion (formula + adduct): [C60H116O6+NH4] 1+) | 340.8 | 340.7 | 341.2 |
| CC/C=C\C/C=C\C/C=C\C/C=C\C/C=C\CCCCCC(=O)OC[C@@H](COC(=O)CCCCCCCCCCCCCCC)OC(=O)CCCCCCC/C=C\CCCCCCCCC [TG 16:0_19:1_22:5] (ion (formula + adduct): [C60H104O6+NH4] 1+) |  |  | 331.2 |
| CCCCC/C=C\C/C=C\C/C=C\C/C=C\CCCC(=O)OC[C@@H](COC(=O)CCCCCCCCCCCCCCC)OC(=O)CCCCCCCCCCCCCCCCCCC [TG 16:0_20:0_20:4] (ion (formula + adduct): [C59H106O6+NH4] 1+) | 332.3 |  |  |
| CCCCCCCCCCCCCCCCCCCCC(=O)OC[C@@H](COC(=O)CCCCCCCCCCCCCCC)OC(=O)CCCCCCCCCCCCCCCCCCC [TG 16:0_20:0_21:0] (ion (formula + adduct): [C60H116O6+NH4] 1+) |  |  | 339.7 |
| CCCCCCCCCCCCCCCCCCCCCC(=O)OC[C@@H](COC(=O)CCCCCCCCCCCCCCC)OC(=O)CCCCCCCCCCCCCCCCCCC [TG 16:0_20:0_22:0] (ion (formula + adduct): [C61H118O6+NH4] 1+) |  | 343.5 | 344.3 |
| CCCCC/C=C\C/C=C\C/C=C\CCCCCCCCC(=O)OC[C@@H](COC(=O)CCCCCCCCCCCCCCC)OC(=O)CCCCCCCCCCCCCCCCCCC [TG 16:0_20:0_22:3] (ion (formula + adduct): [C61H112O6+Na] 1+) |  | 333.9 |  |
| CC/C=C\C/C=C\C/C=C\C/C=C\C/C=C\C/C=C\CCC(=O)OC[C@@H](COC(=O)CCCCCCCCCCCCCCC)OC(=O)CCCCCCCCCCCCCCCCCCC [TG 16:0_20:0_22:6] (ion (formula + adduct): [C61H106O6+NH4] 1+) | 335.3 |  |  |
| CC/C=C\C/C=C\C/C=C\C/C=C\C/C=C\C/C=C\CCC(=O)OC[C@@H](COC(=O)CCCCCCCCCCCCCCC)OC(=O)CCCCCC/C=C\C/C=C\C/C=C\CCCCC [TG 16:0_20:3_22:6] (ion (formula + adduct): [C61H100O6+NH4] 1+) | 329.3 |  | 329.4 |

Second part, the molecule after the results:

| TIMS collisional cross section (sample type: Liver) [Å²] | TIMS collisional cross section (sample type: plasma) [Å²] | TIMS collisional cross section (sample type: HeLa) [Å²] | Structure (SMILES) |
| --- | --- | --- | --- |
| 338.2 |  |  | CCCCC/C=C\C/C=C\C/C=C\C/C=C\CCCC(=O)O[C@H](COC(=O)CCCCCCCCCCCCCCC)COC(=O)CCCCCCCCCCCCCCCCCCCCC [TG 16:0_20:4_22:0] (ion (formula + adduct): [C61H110O6+NH4] 1+) |
|  | 346 | 346.3 | CCCCCCCCCCCCCCCCCCCCCC(=O)OC[C@@H](COC(=O)CCCCCCCCCCCCCCC)OC(=O)CCCCCCCCCCCCCCCCCCCC [TG 16:0_21:0_22:0] (ion (formula + adduct): [C62H120O6+NH4] 1+) |
|  | 342.3 |  | CCCCC/C=C\C/C=C\CCCCCCCCCCCC(=O)OC[C@@H](COC(=O)CCCCCCCCCCCCCCC)OC(=O)CCCCCCCCCCCCCCCCCCCC [TG 16:0_21:0_22:2] (ion (formula + adduct): [C62H116O6+NH4] 1+) |
| 340.7 |  |  | CC/C=C\C/C=C\C/C=C\C/C=C\C/C=C\C/C=C\CCC(=O)OC[C@@H](COC(=O)CCCCCCCCCCCCCCC)OC(=O)CCCCCCCCCCCCCCCCCCCCC [TG 16:0_22:0_22:6] (ion (formula + adduct): [C63H110O6+NH4] 1+) |
|  |  | 332.8 | CC/C=C\C/C=C\C/C=C\C/C=C\C/C=C\C/C=C\CCC(=O)OC[C@@H](COC(=O)CCCCCCCCCCCCCCC)OC(=O)CCCCC/C=C\C/C=C\C/C=C\C/C=C\C/C=C\CC [TG 16:0_22:5_22:6] (ion (formula + adduct): [C63H100O6+NH4] 1+) |
| 331.6 |  |  | CC/C=C\C/C=C\C/C=C\C/C=C\C/C=C\C/C=C\CCC(=O)OC[C@@H](COC(=O)CCCCCCCCCCCCCCC)OC(=O)CC/C=C\C/C=C\C/C=C\C/C=C\C/C=C\C/C=C\CC [TG 16:0_22:6_22:6] (ion (formula + adduct): [C63H98O6+NH4] 1+) |
|  |  | 313.4 | CCCCCC/C=C\CCCCCCCC(=O)OC[C@H](COC(=O)CCCCCCC/C=C\CCCCCCCC)OC(=O)CCCCCCC/C=C\CCCCCC [TG 16:1_16:1_18:1] (ion (formula + adduct): [C53H96O6+NH4] 1+) |
| 310.5 | 311.2 | 311.9 | CCCCC/C=C\C/C=C\CCCCCCCC(=O)OC[C@@H](COC(=O)CCCCCCC/C=C\CCCCCC)OC(=O)CCCCCCC/C=C\CCCCCC [TG 16:1_16:1_18:2] (ion (formula + adduct): [C53H94O6+NH4] 1+) |
| 317.3 |  | 318.5 | CC/C=C\C/C=C\C/C=C\C/C=C\C/C=C\C/C=C\CCC(=O)OC[C@@H](COC(=O)CCCCCCC/C=C\CCCCCC)OC(=O)CCCCCCC/C=C\CCCCCC [TG 16:1_16:1_22:6] (ion (formula + adduct): [C57H94O6+NH4] 1+) |
|  |  | 315.7 | CCCCCC/C=C\CCCCCCCC(=O)OC[C@H](COC(=O)CCCCCCC/C=C\CCCCCCC)OC(=O)CCCCCCCCCCCCCCCC [TG 16:1_17:0_17:1] (ion (formula + adduct): [C53H98O6+NH4] 1+) |
|  |  | 320.7 | CCCCCC/C=C\CCCCCCCC(=O)OC[C@H](COC(=O)CCCCCCCCCCCCCCCCC)OC(=O)CCCCCCCCCCCCCCCC [TG 16:1_17:0_18:0] (ion (formula + adduct): [C54H102O6+NH4] 1+) |
|  |  | 314.8 | CCCCCC/C=C\CCCCCCCC(=O)OC[C@H](COC(=O)CCCCCCC/C=C\CCCCCCC)OC(=O)CCCCCCC/C=C\CCCCCCC [TG 16:1_17:1_17:1] (ion (formula + adduct): [C53H96O6+NH4] 1+) |
|  |  | 318.7 | CCCCCC/C=C\CCCCCCCC(=O)OC[C@H](COC(=O)CCCCCCCCCCCCCCCCC)OC(=O)CCCCCCC/C=C\CCCCCCC [TG 16:1_17:1_18:0] (ion (formula + adduct): [C54H100O6+NH4] 1+) |
